Assay results reported in article PMC8691750, “Euphorbia Factor L2 ameliorates the Progression of K/BxN Serum-Induced Arthritis by Blocking TLR7 Mediated IRAK4/IKKβ/IRF5 and NF-kB Signaling Pathways” (Frontiers in Pharmacology, 2021).
“Also recorded” adds a separate entry of the source.

Legend:
[1] = tested on: K/BxN serum-transfer arthritis (STA) model; test: K/BxN serum-transfer arthritis (STA) model, arthritic index / clinical score; type: in vivo, C57BL/6 mice; conditions: STA mice
Experimental: (§1) K/BxN serum was collected from K/BxN mice at 8 weeks of age, pooled, aliquoted and stored at -20 °C. K/BxN serum-transfer arthritis (STA) model was induced by intraperitoneal (i.p.) application of 150 μL of serum at day 0. Clinical score for arthritis severity was assessed using a 0–4 point scale for each paw at various time points (0–16 total score) as described previously ([Luo et al., 2011]). 8-week old male C57BL/6 mice were purchased from Dashuo Animal Center (China, Chengdu), maintained at 25°C, and exposed to 12-h light and dark cycles. Mice were fed with standard laboratory chow and water with 1 week of acclimatization. Naive mice were used as the control group. Except the control mice, all mice were i. p. injected with 150 μL of serum, then randomly divided into the following groups and treated with different compounds daily for the consecutive 8 days: 1) STA group; 2) Solvent control group, mice were gavaged with the solvent; 3) Dexamethasone (DEX) group, mice were gavaged with 30 mg/kg DEX; 4) EFL2 group 1, mice were gavaged with 40 mg/kg EFL2; 5) EFL2 group 2, mice were intraperitoneally injected with 15 mg/kg EFL2; 6) EFL2 group 3, […] were intraperitoneally injected with 40 mg/kg EFL2. […] All animal experiments were conducted in accordance with ethical regulation for animal care and use in China.

[2] = tested on: TNF-α, IL-4, IL-17A, IL-1β and IL-6 in serum; test: Cytokines in sera of STA mice (CBA Multiplex kit, ELISA); type: in vivo, C57BL/6 mice
Experimental: as §1
IL-4, IL-17A and TNF-α in sera from different group mice were measured using CBA Multiplex kit (BD, United States). The concentrations of IL-1β and IL-6 in serum or supernatant were detected by ELISA Kit (MULTI SCIENCES, China) according to the manufacturers’ instructions.

[3] = tested on: PBMCs; test: Cell viability, CCK8 assay, PBMCs; type: cell-based, human; conditions: CCK8, at 100 μM
Experimental: RAW264.7 cells, a mouse macrophage cell line, were cultured in DMEM medium containing 10% fetal bovine serum (FBS), 1% penicillin-streptomycin and maintained at 37 °C in 5% CO2 humidified air. Bone marrow-derived macrophages (BMDMs) generation was performed as following description. In brief, bone marrow cells were harvested from tibias and femurs of C57BL/6 mice and differentiated for 7 days in DMEM medium supplemented with 10% FBS, 1% penicillin-streptomycin and 50 ng/ml M-CSF. For human peripheral blood mononuclear cells (PBMCs) preparation, 5 ml peripheral venous blood was obtained from healthy donors in West China Hospital. PBMCs were isolated with Human Lymphocyte Separation Medium (LTS1077, Tian Jing, China) according to the manufacturer’s instructions. The experimental protocols were performed according to the approved guidelines established by the Institutional Human Research Subject Protection Committee of the Ethics Committee of West China Hospital, Sichuan University, China.
The effects of EFL2 on RAW264.7 cells, BMDMs and PBMCs viability were evaluated by Cell Counting Kit-8 (CCK8) assay (Dojindo, Japan). […] The optical absorbance at 450 nm was read with a Biotek Eon™ microplate reader (Biotek, Vermont, United States).

[4] = tested on: TLR7-mediated NF-κB signaling pathway (IKKα/β, IκBα, p65); test: Western blot, NF-κB pathway in R837-stimulated RAW264.7 cells; type: cell-based, mouse; conditions: R837-stimulated RAW264.7
Experimental: RAW264.7 cells (2×10^6 cells/well) were plated into 6-well plates and then incubated at 37°C in 5% CO2 for 24 h. After incubated with various concentrations of EFL2 (1, 5 and 10 µM) for 1 h, cells were then stimulated by R837 (20 μg/ml) for 30 min. Cell lysates were prepared by direct lysis in 20 µL IP buffer (Beyotime Biotechnology, Shanghai, China). After obtaining the whole cell extracts, the cytosolic and nuclear were seperated using Nuclear and Cytoplasmic Protein Extraction Kit (Beyotime Biotechnology, Shanghai, China). BCA Protein Assay Kit (Beyotime Biotechnology, Nantong, China) was applied to determine the protein concentrations. The bands corresponding to p- IKKα/β, IKKα/β, p-IκBα, IκBα, p-p65, p65, p-IRAK4, IRAK4, p-IKKβ, IKKβ, p-IRF5, IRF5, β-actin and Lamin B were visualized using a Western Blot Detection Chemiluminescence Kit (Merck). Protein extracted from the total lysates/cytoplasm and nucleus was quantified in relation to β-actin and Lamin B bands, respectively.
The antibodies used in the experiments were as follows: rabbit anti-mouse IKKα/β polyclonal antibody (1:1,000, Abways, China), rabbit anti-mouse IκBα polyclonal antibody (1:1,000, Abgent, China), rabbit anti-mouse p65 polyclonal antibody (1:1,000, Abgent, China), rabbit anti-mouse phosphorylated IKKα (Ser176)/β (Ser177) (1:1,000, Abways, China), rabbit anti-mouse phosphorylated IκBα (1:1,000, Abcam, United States), rabbit anti-mouse phosphorylated p65 (1:1,000, Abcam, United States), rabbit anti-mouse IRAK4 polyclonal antibody (1:1,000, Proteintech, United States), rabbit anti-mouse phosphorylated IRAK4 (Thr345/Ser346) (1:1,000, Affinity, United States), rabbit anti-mouse IKKβ polyclonal antibody (1:1,000, Abbkine, United States), rabbit anti-mouse phosphorylated IKKβ (Ser177) (1:1,000, Abways, China), rabbit anti-mouse IRF5 polyclonal antibody (1:1,000, Immunoway, United States), rabbit anti-mouse phosphorylated IRF5 (Ser437) (1:1,000, Affinity, United States), anti-mouse actin monoclonal antibody (1:20,000, Transgen, China) and rabbit anti-mouse LaminB monoclonal antibody (1:5,000, Abways, China).

For `C=C1C(OC(=O)c2ccccc2)CC2C(C=C(C)C(=O)C3(OC(C)=O)CC(C)C(OC(=O)c4ccccc4)C3C1OC(C)=O)C2(C)C` (stereo not drawn) [EFL2, Euphorbia factor L2], the “arthritis symptoms (clinical score)” value ([1]; EFL2 15 mg/kg i.p. daily, particularly acute phase) was “to a moderate extent, alleviated”, the “joint swelling and redness (clinical score)” value ([1]; EFL2 40 mg/kg i.p. daily) was “dramatically improved” and the “arthritis severity (clinical score)” value ([1]; EFL2 40 mg/kg oral (gavage) daily, 40 mg/kg) was “did not affect; also recorded: hardly improved”. For the same compound, the “IL-6 level in sera” value ([2]; STA mice, EFL2 15 mg/kg i.p., day 8) was “only effectively inhibited”, the “IL-1β level in sera” value ([2]; STA mice, EFL2 40 mg/kg i.p.) was “significantly reduced” and the “IL-6 level in sera” value ([2]; STA mice, EFL2 40 mg/kg i.p.) was “significantly reduced”. The “TNF-α, IL-4 and IL-17A levels in blood (other cytokines)” value ([2]; control, STA and STA mice treated with DEX or EFL2) was “did not affect”, the PBMCs viability [3] was “did not affect” and the IKKα/β phosphorylation ([4]; EFL2 1, 5, 10 μM) was “effectively inhibited”. The IκB-α phosphorylation ([4]; EFL2 1, 5, 10 μM) was “effectively inhibited”, the p65 phosphorylation ([4]; EFL2 1, 5, 10 μM) was “effectively inhibited” and the “NF-κB subunit p65 translocation activity” value ([4]; EFL2, also immunofluorescence) was “significantly suppressed”.
